Experimental data reported in PMC2854261 (Analytical biochemistry, 2010).

Molecular target: human DNA (cytosine-5)-methyltransferase I (DNMT1), Δ501DNMT1 (Homo sapiens, UniProt P26358)
Type: biochemical

human DNA (cytosine-5)-methyltransferase I (DNMT1), Δ501DNMT1, sequence (P26358 502-1616, stated change not applied): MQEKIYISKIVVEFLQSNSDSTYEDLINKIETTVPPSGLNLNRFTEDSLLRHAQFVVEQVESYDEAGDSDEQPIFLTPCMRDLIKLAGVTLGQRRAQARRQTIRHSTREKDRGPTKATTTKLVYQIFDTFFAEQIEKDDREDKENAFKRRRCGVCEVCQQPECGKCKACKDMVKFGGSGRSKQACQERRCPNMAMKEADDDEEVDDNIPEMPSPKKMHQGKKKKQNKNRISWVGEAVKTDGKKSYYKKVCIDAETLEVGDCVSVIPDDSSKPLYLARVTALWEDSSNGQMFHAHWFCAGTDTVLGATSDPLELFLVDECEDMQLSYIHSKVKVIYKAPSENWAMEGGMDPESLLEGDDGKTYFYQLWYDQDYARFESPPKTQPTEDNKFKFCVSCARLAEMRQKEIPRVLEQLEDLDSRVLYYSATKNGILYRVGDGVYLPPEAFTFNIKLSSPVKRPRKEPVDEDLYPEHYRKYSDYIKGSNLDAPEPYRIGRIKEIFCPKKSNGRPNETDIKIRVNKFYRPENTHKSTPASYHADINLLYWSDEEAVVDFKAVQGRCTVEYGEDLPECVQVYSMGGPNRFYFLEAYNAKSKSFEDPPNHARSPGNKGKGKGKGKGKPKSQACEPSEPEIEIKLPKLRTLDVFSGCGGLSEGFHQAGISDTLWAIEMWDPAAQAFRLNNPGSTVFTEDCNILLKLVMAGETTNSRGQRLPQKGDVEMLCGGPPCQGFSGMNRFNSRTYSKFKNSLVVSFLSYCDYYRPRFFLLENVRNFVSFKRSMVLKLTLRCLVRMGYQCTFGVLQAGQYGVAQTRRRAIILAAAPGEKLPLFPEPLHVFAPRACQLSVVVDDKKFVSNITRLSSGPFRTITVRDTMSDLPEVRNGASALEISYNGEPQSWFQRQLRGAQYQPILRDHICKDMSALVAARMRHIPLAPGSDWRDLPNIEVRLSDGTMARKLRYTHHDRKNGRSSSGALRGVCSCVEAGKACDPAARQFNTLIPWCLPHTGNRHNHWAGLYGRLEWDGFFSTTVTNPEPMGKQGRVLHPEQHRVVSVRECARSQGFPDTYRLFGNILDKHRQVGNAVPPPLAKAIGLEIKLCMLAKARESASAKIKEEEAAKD

SMILES: Nc1ncnc2c1ncn2[C@@H]1O[C@H](CO)[C@@H](O)[C@H]1O [adenosine]
- IC50: 3 mM
